The results in this text go back to ChEMBL document CHEMBL4483862, “Open-source discovery of chemical leads for next-generation chemoprotective antimalarials” (2018).

The experiment relates to Plasmodium berghei. Briefly: Luciferase/luciferin-expressing antifolate-resistant parasites were used to infect a culture of HepG2 cells that were pre-incubated with compounds. Infected hepatocytes emit light due to the luciferase reaction. Assay results are presented as the percent inhibition of light emission compared to control. […]. The class given is functional. The conditions noted are these: sporozoite; for IC90: read-out: LUCIFERASE INFECTION ASSAY - IC90.

Setting [1] is: read-out: LUCIFERASE INFECTION ASSAY - IC50.

A value given as a limit tells only on which side of the number the result lay.

One may read the IC50 as the concentration that gives 50% inhibition. The IC90 is the point of the concentration-response curve where the effect stands at 90%. For the compound `CC/C(=N\OC(=O)c1cccc(C(F)(F)F)c1)c1ccc(-c2ccccc2F)cc1`, the concentration for an effect of 90% (IC90) was more than 7.94 µM. Moreover, the IC50 (HEPG2TOX_HILL_SLOPE 1.72, HEPG2TOX_R_SQUARED 0.909, PBLUC_HILL_SLOPE 3.88, PBLUC_R_SQUARED 0.158, read-out: LUCIFERASE INFECTION ASSAY - IC50) was determined as 6.84 µM.
On to `CCCn1nc(C(=O)Nc2ccccc2Cc2ccccc2)c2ccccc2c1=O`, for which the IC90 was more than 10 µM. Besides, under “FFLUC_HILL_SLOPE 12.7, FFLUC_R_SQUARED 0.0456, HEPG2TOX_HILL_SLOPE 0.0305, HEPG2TOX_R_SQUARED 0.0383, read-out: LUCIFERASE INFECTION ASSAY - IC50”, the IC50 was more than 10 µM.
Take `COc1ccc(N2C(=O)C=CC2=O)cc1`: the IC90 is more than 16.2 µM. Further, the IC50 (FFLUC_HILL_SLOPE 16.4, FFLUC_R_SQUARED 0.242, read-out: LUCIFERASE INFECTION ASSAY - IC50) is more than 16.2 µM.
As to `Cc1ccc(O)c(C(=O)c2c[nH]c(-c3nc4ccccc4[nH]3)c2)c1`, the IC90 was more than 10 µM. In addition, the IC50 (HEPG2TOX_HILL_SLOPE 1.19, HEPG2TOX_R_SQUARED 0.817, PBLUC_HILL_SLOPE 1.99, PBLUC_R_SQUARED 0.294, read-out: LUCIFERASE INFECTION ASSAY - IC50) worked out at 3.74 µM.
For the compound `CC(C)=CC(=O)Nc1scc(-c2ccccc2)c1C(=O)OCc1nnc(-c2cccs2)o1`, the IC90 was more than 10 µM. In addition, for the setting “FFLUC_HILL_SLOPE 8.85, FFLUC_R_SQUARED 0.514, PBLUC_HILL_SLOPE 2.24, PBLUC_R_SQUARED 0.566, read-out: LUCIFERASE INFECTION ASSAY - IC50”, the IC50 is 5.03 µM.
Turning to `CCOC(=O)c1cc(C#N)c(Sc2n[nH]c(=O)n2Cc2ccccc2)nc1C(F)(F)F`, the IC90 was more than 7.34 µM. Besides, under setting [1], the IC50 was more than 7.34 µM.
Take `O=C(Nc1nc2c(s1)CCCC2)c1ccc(Nc2ccccc2)c([N+](=O)[O-])c1`: the IC90 is more than 10 µM. Further, the half-inhibitory concentration (IC50) under setting [1] is more than 10 µM.
As to `NC(=O)NC(CC(=O)OCC(=O)Nc1ccccc1-c1ccccc1)c1ccc(Cl)cc1` (centres undefined), the IC90 is more than 10 µM. Also, the IC50 (PBLUC_HILL_SLOPE 5.92, PBLUC_R_SQUARED 0.131, read-out: LUCIFERASE INFECTION ASSAY - IC50) is more than 10 µM.
On to `CCCn1c(NC(=O)c2cccnc2OCC)nc2ccccc21`, for which the IC90 is more than 10 µM. Besides, where the note is “PBLUC_HILL_SLOPE 4.52, PBLUC_R_SQUARED 0.28, read-out: LUCIFERASE INFECTION ASSAY - IC50”, the IC50 worked out at 7.59 µM.
Turning to `COc1cccc(-c2cc3c(cn2)nc(NCCc2cc(OC)ccc2OC)n3C)c1`, the IC90 is 0.667 µM. Also, where the note is “HEPG2TOX_HILL_SLOPE 2.25, HEPG2TOX_R_SQUARED 0.767, PBLUC_HILL_SLOPE 1.04, PBLUC_R_SQUARED 0.785, read-out: LUCIFERASE INFECTION ASSAY - IC50”, the IC50 was 0.0813 µM.
For `Cc1cc(C)n(-c2nc(-c3ccccc3)cc(N(C)CCO)n2)n1`, the IC90 stood at 3.45 µM. Further, the IC50 (HEPG2TOX_HILL_SLOPE 0.522, HEPG2TOX_R_SQUARED 0.395, PBLUC_HILL_SLOPE 14.2, PBLUC_R_SQUARED 0.716, read-out: LUCIFERASE INFECTION ASSAY - IC50) worked out at 2.96 µM.
For the compound `Cn1ccc(NC(=O)c2cccc(S(=O)(=O)N(Cc3ccccc3)c3ccccc3Cl)c2)n1`, the IC90 is more than 10 µM. The IC50 (PBLUC_HILL_SLOPE 2.72, PBLUC_R_SQUARED 0.559, read-out: LUCIFERASE INFECTION ASSAY - IC50) was found to be 4.88 µM.
`COc1ccc(C2CC(=O)c3c(n[nH]c3C)C2)cc1` (centres undefined): the IC90 is more than 12.9 µM. Besides, the IC50 (PBLUC_HILL_SLOPE 1.11, PBLUC_R_SQUARED 0.36, read-out: LUCIFERASE INFECTION ASSAY - IC50) was 4.45 µM.
On to `CC1CCC(C(C)C)C(OCC(O)CN2C(C)CCCC2C)C1` (centres undefined), for which the IC90 was more than 9.12 µM. Also, under setting [1], the IC50 is more than 9.12 µM.
With `N#CC(c1ccccc1)c1ccc(NC(=S)NCC2CCCO2)cc1Cl` (centres undefined), the 90% effect concentration (IC90) was more than 10 µM. Further, the IC50 (PBLUC_HILL_SLOPE 1.33, PBLUC_R_SQUARED 0.895, read-out: LUCIFERASE INFECTION ASSAY - IC50) was found to be 4.42 µM.
As for `CCc1c(C)nc2c(-c3ccccc3)c(C)nn2c1Nc1ccc(NC(C)=O)cc1`, the concentration for an effect of 90% (IC90) is more than 8.26 µM. Moreover, under “PBLUC_HILL_SLOPE 3.43, PBLUC_R_SQUARED 0.461, read-out: LUCIFERASE INFECTION ASSAY - IC50”, the IC50 turned out to be 5.52 µM.
Consider `Cc1cccc(C)c1-n1nnnc1Sc1nc(CN2CCOCC2)nc2sc(C)c(C)c12`, for which the IC90 was more than 10 µM. The IC50 (HEPG2TOX_HILL_SLOPE 14.5, 28.4, HEPG2TOX_R_SQUARED 0.890, 0.649, PBLUC_HILL_SLOPE 85.3, 7.09, PBLUC_R_SQUARED 0.147, 0.386, read-out: LUCIFERASE INFECTION ASSAY - IC50) was 8.67 µM.
As for `N#Cc1cccc(Nc2nc(C(F)(F)F)nc3ccccc23)c1`, the IC90 was more than 10 µM. For the same compound, the IC50 (PBLUC_HILL_SLOPE 4.2, PBLUC_R_SQUARED 0.258, read-out: LUCIFERASE INFECTION ASSAY - IC50) amounted to 8.32 µM.
On to `C=CCOC(=O)C1=C(C)N(c2ccc3c(c2)OCCO3)C(=S)NC1c1ccc(F)cc1F` (centres undefined), for which the IC90 was more than 10 µM. Moreover, the IC50 (PBLUC_HILL_SLOPE 2.28, PBLUC_R_SQUARED 0.442, read-out: LUCIFERASE INFECTION ASSAY - IC50) amounted to 5.73 µM.
For the compound `FC(F)(F)Oc1ccc(-c2ccc(OCc3ccccn3)nc2)cc1`, the IC90 is more than 9.53 µM. In addition, for the setting “HEPG2TOX_HILL_SLOPE 9.63, HEPG2TOX_R_SQUARED 0.944, read-out: LUCIFERASE INFECTION ASSAY - IC50”, the IC50 was more than 9.53 µM.
For the compound `COc1ccc(CNCC(O)COc2ccc(C(C)(C)C)cc2C)cc1OC` (centres undefined), the IC90 was determined as 10 µM. In addition, the IC50 (HEPG2TOX_HILL_SLOPE 9.88, HEPG2TOX_R_SQUARED 0.866, PBLUC_HILL_SLOPE 15, PBLUC_R_SQUARED 0.0695, read-out: LUCIFERASE INFECTION ASSAY - IC50) was 8.63 µM.
With `CC(C(=O)Nc1cccc(C#Cc2cccs2)c1)n1cnc2ccccc21` (centres undefined), the IC90 was more than 10 µM. Besides, the IC50 under setting [1] was more than 10 µM.
As for `CCN1C(=O)N(CCCc2cccnc2)C(=O)C12CCN(Cc1ccc3c(c1)Cc1ccccc1-3)CC2`, the IC90 turned out to be 2.58 µM. Further, the IC50 (HEPG2TOX_HILL_SLOPE 1.68, HEPG2TOX_R_SQUARED 0.934, PBLUC_HILL_SLOPE 11.7, PBLUC_R_SQUARED 0.742, read-out: LUCIFERASE INFECTION ASSAY - IC50) was 2.14 µM.
`CCN(CC(=O)Nc1nnc(-c2ccccc2)o1)Cc1ccc(Br)s1`: the IC90 amounted to 3.99 µM. The IC50 (PBLUC_HILL_SLOPE 15.5, PBLUC_R_SQUARED 0.469, read-out: LUCIFERASE INFECTION ASSAY - IC50) is 3.46 µM.
As for `Cc1ccc(N2C(=O)C=CC2=O)cc1C`, the IC90 stood at 12.2 µM. Under setting [1], the IC50 amounted to 6.57 µM.
Regarding `N#Cc1ccc(-c2cc(C3(CNc4cccc(OC(F)(F)F)c4)CC3)ccn2)cc1`, the IC90 was more than 10 µM. In addition, the IC50 (PBLUC_HILL_SLOPE 1.65, PBLUC_R_SQUARED 0.178, read-out: LUCIFERASE INFECTION ASSAY - IC50) was more than 10 µM.
Turning to `Cn1c(Cn2nnc(-c3cccc(F)c3)n2)nc2ccccc2c1=O`, the IC90 was more than 10 µM. The IC50 under setting [1] was more than 10 µM.
Consider `O=S(=O)(Nc1ccc(C(F)(F)F)cc1Cl)c1cc(C(F)(F)F)ccc1OCC(F)(F)F`, for which the 90% effect concentration (IC90) was determined as 3.28 µM. Moreover, the IC50 (HEPG2TOX_HILL_SLOPE 1.76, HEPG2TOX_R_SQUARED 0.989, PBLUC_HILL_SLOPE 2.99, PBLUC_R_SQUARED 0.37, read-out: LUCIFERASE INFECTION ASSAY - IC50) was found to be 1.57 µM.
For the compound `Cc1nc(C2CC2)nc2sc(-c3nc(-c4cccs4)no3)c(N)c12`, the 90% effect concentration (IC90) was more than 10 µM. In addition, the IC50 (PBLUC_HILL_SLOPE 2.09, PBLUC_R_SQUARED 0.41, read-out: LUCIFERASE INFECTION ASSAY - IC50) was found to be 4.67 µM.
In the case of `N#Cc1cc(-c2ccc(Cl)cc2)cnc1OC(=O)c1ccc(Cl)cc1`, the IC90 is more than 8.94 µM. Moreover, where the note is “HEPG2TOX_HILL_SLOPE 24.3, HEPG2TOX_R_SQUARED 0.913, PBLUC_HILL_SLOPE 3.24, PBLUC_R_SQUARED 0.477, read-out: LUCIFERASE INFECTION ASSAY - IC50”, the IC50 is 6.19 µM.
Regarding `CCN(CC)S(=O)(=O)N1CCN(C(=O)c2[nH]nc3ccccc23)CC1`, the 90% effect concentration (IC90) came out at 3.63 µM. In addition, the IC50 (PBLUC_HILL_SLOPE 2.28, PBLUC_R_SQUARED 0.575, read-out: LUCIFERASE INFECTION ASSAY - IC50) was 1.39 µM.
In the case of `Nc1ncc(-c2ccc(CO)cc2)cc1-c1ccc(F)c(Cl)c1`, the IC90 was more than 10 µM. Further, the IC50 (PBLUC_HILL_SLOPE 12.5, PBLUC_R_SQUARED 0.497, read-out: LUCIFERASE INFECTION ASSAY - IC50) was 9.14 µM.
Take `COc1ccc(-c2cnc3ccc(NCc4ccc5c(c4)OCO5)nn23)cc1`: the IC90 is 1.36 µM. The IC50 under setting [1] stood at 0.746 µM.
For `CCOc1ccc(-n2c(C)cc(/C=N/Nc3nc(C)cc(O)n3)c2C)cc1`, the IC90 was more than 10 µM. Further, under “PBLUC_HILL_SLOPE 14.4, PBLUC_R_SQUARED 0.318, read-out: LUCIFERASE INFECTION ASSAY - IC50”, the IC50 was determined as 9.96 µM.
For the compound `Cc1ccc(OCc2nc(C(=O)Nc3cccc(S(=O)(=O)NC(C)(C)C)c3)cs2)cc1`, the concentration for an effect of 90% (IC90) was more than 10 µM. Under setting [1], the IC50 is more than 10 µM.
Consider `FC(F)(F)c1ccc2nc(SCc3c(Cl)cccc3Cl)[nH]c2c1`, for which the IC90 was more than 7.98 µM. In addition, the concentration for half-maximal inhibition (IC50) under setting [1] was more than 7.98 µM.
With `Cc1cc(NC(=O)c2ccc(CSCc3c(Cl)cccc3Cl)cc2)no1`, the 90% effect concentration (IC90) came to 1.31 µM. Moreover, for the setting “FFLUC_HILL_SLOPE 28.8, FFLUC_R_SQUARED 0.69, PBLUC_HILL_SLOPE 8.08, PBLUC_R_SQUARED 0.529, read-out: LUCIFERASE INFECTION ASSAY - IC50”, the IC50 was 0.997 µM.
